In US20230055705A1, “SUBSTITUTED THIOPHENE CARBOXAMIDES AND DERIVATIVES THEREOF” (Bayer Aktiengesellschaft, priority 2019, published 2023):

Experiments:
[1] = test system: Pseudomonas syringae pv. tomato; assay: Pseudomonas syringae pv. tomato in vitro cell test; format: cell-based; conditions: 20 ppm of active ingredient, 24 h incubation, read-out: efficacy (inhibition of bacteria growth)
Experimental: Culture medium: LB broth medium (Luria Broth Miller) Sigma
Inoculum: bacteria suspension
Compounds were solubilized in DMSO and the solution used to prepare the required range of concentrations. The final concentration of DMSO used in the assay was 1%.
(§1) Inoculum was prepared from a pre-culture of bacteria grown in liquid medium and diluted to the desired optical density (OD).
(§2) Compounds were evaluated for their ability to inhibit bacteria growth in liquid culture assay. The compounds were added in the desired concentrations to culture medium containing the bacteria suspension. After 24 h of incubation, the efficacy of compounds was determined by spectrometric measurement of bacteria growth. Inhibition was determined by comparing the absorbance values in wells containing the compounds with the absorbance in control wells without active ingredients.

[2] = test system: Peronospora parasitica; assay: In vivo preventive test on Peronospora parasitica (Crucifer downy mildew); conditions: Hyaloperonospora parasitica, in Brassica oleracea, 120 h, cabbage, evaluated 5 days after inoculation, read-out: efficacy; for pest or weed control at 31 ppm: 31 ppm of active ingredient; for pest or weed control at 125 ppm: 125 ppm of active ingredient; for pest or weed control at 500 ppm: 500 ppm of active ingredient
Experimental: (§3) The tested active ingredients were prepared by homogenization in a mixture of acetone/Dimethyl sulfoxide/Tween®, and then diluted with water to obtain the desired active material concentration. The young plants of cabbage were treated by spraying the active ingredient prepared as described above. Control plants were treated only with an aqueous solution of acetone/Dimethyl sulfoxide/Tween®.
After 72 hours, the plants were contaminated by spraying the leaves with an aqueous suspension of Peronospora parasitica spores. The contaminated cabbage plants were incubated for 5 days at 20° C. and at 100% relative humidity.
The test was evaluated 5 days after the inoculation. 0% means an efficacy which corresponds to that of the control plants while an efficacy of 100% means that no disease was observed.
Compounds CMP2 and CMP3 were tested in an in vivo preventive test on Peronospora parasitica (Crucifer downy mildew) in the same conditions as described in Example G.

[3] = test system: Xanthomonas campestris pv. campestris; assay: In vivo preventive test on Xanthomonas campestris pv. campestris (black rot on cabbage); conditions: evaluated 8 or 10 days after inoculation, read-out: efficacy; for pest or weed control at 31 ppm: 31 ppm of active ingredient; for pest or weed control at 125 ppm: 125 ppm of active ingredient
Experimental: The tested active ingredients were prepared by homogenization in a mixture of acetone/Dimethyl sulfoxide/Tween®, and then diluted with water to obtain the desired active material concentration.
The young plants of cabbage were treated by spraying the active ingredient prepared as described above. Control plants were treated only with an aqueous solution of acetone/Dimethyl sulfoxide/Tween®.
After 72 hours, the plants were contaminated by spraying the leaves with an aqueous bacteria suspension of Xanthomonas campestris pv. campestris. The contaminated cabbage plants were incubated for 8 or 10 days at 27° C. at 95% relative humidity.
The test was evaluated 8 or 10 days after the inoculation. 0% means an efficacy which corresponds to that of the control plants while an efficacy of 100% means that no disease was observed. […]
Compounds CMP1, CMP2, CMP3 and CMP4 were tested in an in vivo preventive test on Xanthomonas campestris pv. campestris (black rot on cabbage) in the same conditions as described in Example H.

[4] = LogP by HPLC on reversed phase columns (EEC directive 79/831 Annex V.A8); format: physicochemical; conditions: reversed phase HPLC columns
How it was run: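 LogP derived from retention time by linear interpolation against a C3–C16 alkan-2-one calibration series of known LogP. Measured by HPLC on reversed-phase columns following EEC 79/831 Annex V.A8. UV spectra over 200–400 nm at signal peaks gave lambda-max.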

[5] = test system: salicylate responsive promoter sequence of the PR1 (pathogenesis-related protein I) gene (AT2G14610); assay: Induction of defense gene expression in Arabidopsis thaliana (PR1 promoter-GFP reporter plants); format: in vivo; conditions: Arabidopsis thaliana, 72 h, 3rd day after spraying, mock treated leaves set as 1.00, read-out: relative fluorescence value; for fold induction at 75 ppm: 75 ppm of compound
Experimental: Arabidopsis thaliana reporter plants containing the coding sequence of a green fluorescent protein (GFP) linked to the salicylate responsive promoter sequence of the PR1 (pathogenesis-related protein I) gene (AT2G14610) were grown for five days and then sprayed with compounds. On the 3rd day after spraying, plant fluorescence was assessed with a MacroFluo instrument from Leica Microsystems (Wetzlar, Germany). Fluorescences were quantified with the Meta-Morph Microscopy Automation & Image Analysis Software (Molecular Devices, Sunnyvale, Calif., United States). Background fluorescence in mock treated leaves was set as 1.00.

[6] = test system: Xanthomonas campestris pv. campestris; assay: Xanthomonas campestris pv. campestris in vitro cell test; format: cell-based; conditions: 20 ppm of active ingredient, 24 h incubation, read-out: efficacy (inhibition of bacteria growth)
Experimental: • Solvent: DMSO • Culture medium: LB broth medium (Luria Broth Miller) Sigma • Inoculum: bacteria suspension
Compounds were solubilized in DMSO and the solution used to prepare the required range of concentrations. The final concentration of DMSO used in the assay was ≤1%.
as §1, §2

[7] = test system: Uromyces appendiculatus; assay: In vivo preventive test on Uromyces appendiculatus (bean rust); conditions: 240 h, evaluated 10 days after inoculation, read-out: efficacy; for pest or weed control at 125 ppm: 125 ppm of active ingredient; for pest or weed control at 500 ppm: 500 ppm of active ingredient
Experimental: as §3, with “bean” for “cabbage”
(§4) After 72 hours, the plants were contaminated by spraying the leaves with an aqueous suspension of Uromyces appendiculatus spores. The contaminated bean plants were incubated for 24 hours at 20° C. and at 100% relative humidity and then for 9 days at 20° C. and at 70-80% relative humidity. The test was evaluated 10 days after the inoculation. 0% means an efficacy which corresponds to that of the control plants while an efficacy of 100% means that no disease was observed.
Compounds CMP5 and CMP6 were tested in an in vivo preventive test on Uromyces appendiculatus (bean rust) in the same conditions as described in Example I.

[8] = test system: Colletotrichum lindemuthianum; assay: In vivo preventive test on Colletotrichum lindemuthianum (Antrachnose on bean); conditions: 144 h, inoculation 72 h after spraying, evaluated 6 days after inoculation, read-out: efficacy; for pest or weed control at 31 ppm: 31 ppm of active ingredient; for pest or weed control at 500 ppm: 500 ppm of active ingredient
Experimental: as §3, with “bean” for “cabbage”
as §4, with “of Colletotrichum lindemuthianum” for “of Uromyces appendiculatus”, “for 5” for “for 9”, “at 90%” for “at 70-80%”, “evaluated 6” for “evaluated 10”
Compound CMP1 was tested in an in vivo preventive test on Colletotrichum lindemuthianum (Antrachnose on bean) in the same conditions as described in Example F.

[9] = test system: Pseudomonas syringae pv. tomato; assay: In vivo preventive test on Pseudomonas syringae pv. tomato (bacterial speck on tomato); conditions: evaluated 5 or 6 days after inoculation, read-out: efficacy; for pest or weed control at 500 ppm: 500 ppm of active ingredient; for pest or weed control at 31 ppm: 31 ppm of active ingredient
Experimental: as §3, with “tomato” for “cabbage”
After 72 hours, the plants were contaminated by spraying the leaves with an aqueous bacteria suspension of Pseudomonas syringae pv. tomato. The contaminated tomato plants were incubated for 4 days in saturated atmosphere at 22° C. day/20° C. night—70% HR and then for 1 or 2 days at 22° C. day/20° C. night at 70-80% relative humidity.
The test was evaluated 5 or 6 days after the inoculation. 0% means an efficacy which corresponds to that of the control plants while an efficacy of 100% means that no disease was observed.
Compounds CMP1 and CMP4 were tested in an in vivo preventive test on Pseudomonas syringae pv. tomato (bacterial speck on tomato) in the same conditions as described in Example J.

[10] = test system: Alternaria alternata; assay: Alternaria alternata in vitro cell test; format: cell-based; conditions: 120 h, 20 ppm of active ingredient, 5 days incubation, read-out: efficacy (inhibition of fungal growth)
Experimental: • Solvent: DMSO • Culture medium: 14.6 g anhydrous D-glucose (VWR), 7.1 g Mycological Peptone (Oxoid), 1.4 g granulated Yeast Extract (Merck), QSP 1 liter • Inoculum: spores suspension
Fungicides were solubilized in DMSO and the solution used to prepare the required range of concentrations. The final concentration of DMSO used in the assay was ≤[…]1%.
A spore suspension of A. alternata was prepared and diluted to the desired spore density.
Fungicides were evaluated for their ability to inhibit spore germination and mycelium growth in liquid culture assay. The compounds were added in the desired concentration to the culture medium with spores. After 5 days incubation, fungi-toxicity of compounds was determined by spectrometric measurement of mycelium growth. Inhibition of fungal growth was determined by comparing the absorbance values in wells containing the fungicides with the absorbance in control wells without fungicides.

[11] = method [a]: LC-UV, in an acidic range, with 0.1% formic acid in water and acetonitrile as eluent (linear gradient from 10% to 95% acetonitrile)
[12] = method [a]: LC-UV, acidic range, 0.1% formic acid in water and acetonitrile as eluent (linear gradient 10% to 95% acetonitrile)

Structure (SMILES) | inhibition at 20 ppm [1] | pest or weed control at 31 ppm [2] | pest or weed control at 125 ppm [2] | pest or weed control at 500 ppm [2] | pest or weed control at 31 ppm [3] | pest or weed control at 125 ppm [3] | chromatographic logP [4, 11] | fold induction at 75 ppm [5] | fold induction at 300 ppm [5] | inhibition at 20 ppm [6] | pest or weed control at 125 ppm [7] | pest or weed control at 500 ppm [7] | pest or weed control at 31 ppm [8] | pest or weed control at 500 ppm [8] | pest or weed control at 500 ppm [9] | chromatographic logP [4, 12] | inhibition at 20 ppm [10] | pest or weed control at 31 ppm [9] | chromatographic logP ([4]; given in the preparation examples, method not marked)
CCOC(=O)C(COC)NC(=O)c1sc(Cl)c(Cl)c1Cl (stereo not shown) [I.059] | ≤ 30% | 80 to 89% | 70 to 79% | 90 to 100% | 90 to 100% | 70% | 3.83 | > 2 | > 2 | ≤ 30% | 90 to 100% | 90 to 100% | 70 to 79% | 90 to 100% | 90 to 100% |  |  |  | 
CCOC(=O)C(CSC(C)=O)NC(=O)c1sc(Cl)c(Cl)c1Cl (stereo not shown) [I.145] | ≤ 30% | 90 to 100% | 90 to 100% |  | 90 to 100% | 90 to 100% |  | > 2 | > 2 | ≤ 30% | 90 to 100% |  |  |  |  | 3.41 | ≤ 30% | 80 to 89% | 
CCOC(=O)C(CO)NC(=O)c1sc(Cl)c(Cl)c1Cl (stereo not shown) [I.078] | ≤ 30% | 90 to 100% | 90 to 100% | 90 to 100% |  |  | 2.75 | > 2 | > 2 | ≤ 30% | 90 to 100% | 90 to 100% |  | 90 to 100% |  |  | ≤ 30% |  | 
N#CCNC(=O)c1sc(Cl)c(Cl)c1Cl [I.025, 3,4,5-trichloro-N-(cyanomethyl)thiophene-2-carboxamide] | ≤ 30% | 80 to 89% | 80 to 89% | 90 to 100% | 70 to 79% |  | 2.64 | > 2 | > 2 | ≤ 30% |  |  | 90 to 100% | 90 to 100% | 80 to 89% |  |  |  | 2.59
CCOC(=O)C[C@H](NC(=O)c1sc(Cl)c(Cl)c1Cl)C(=O)OCC [I.138] | ≤ 30% | 90 to 100% | 90 to 100% |  | 70 to 79% |  |  | > 2 | > 2 | ≤ 30% | 90 to 100% |  |  |  |  | 4.12 | ≤ 30% | 90 to 100% | 
COC(=O)[C@H](CC(=O)OC(C)(C)C)NC(=O)c1sc(Cl)c(Cl)c1Cl [I.136] | ≤ 30% | 90 to 100% | 90 to 100% |  | 80 to 89% | 70 to 79% |  | > 2 | > 2 | ≤ 30% |  |  |  |  |  | 4.54 | ≤ 30% |  | 
